{"source": "paper PMC10722513", "experiment": "Au(I)-catalysed intramolecular Trp C2-H alkynylation: peptide-EBX (4-ethynylbenzoyl bis-CF3-benziodoxole on Lys side chain or N-terminus) + AuCl·Me2S, open flask", "conditions": "HFIP, 5.0 mM, 25.0 °C, 0.17 h"}
{"molecule": "CC(=O)N[C@H]1CCCCNC(=O)c2ccc(cc2)C#Cc2c(c3ccccc3n2C)C[C@@H](C(=O)O)NC(=O)[C@H](Cc2ccccc2)NC(=O)[C@H](C)NC(=O)[C@H](CC(C)C)NC1=O", "note": "[Ac-K(EBX)-L-A-F-W(1-Me)-OH]", "values": [{"measurement": "ring closure, isolated yield", "setting": "from CC(=O)N[C@@H](CCCCNC(=O)c1ccc(C#CI2OC(C(F)(F)F)(C(F)(F)F)c3ccccc32)cc1)C(=O)N[C@@H](CC(C)C)C(=O)N[C@@H](C)C(=O)N[C@@H](Cc1ccccc1)C(=O)N[C@@H](Cc1cn(C)c2ccccc12)C(=O)O, 28-membered ring", "value": 63, "unit": "%"}]}
{"molecule": "N=C(N)NCCC[C@@H]1NC(=O)[C@H](CCCNC(=N)N)NC(=O)[C@H](CCCNC(=N)N)NC(=O)[C@H](CCCNC(=N)N)NC(=O)[C@H](Cc2ccc3ccccc3c2)NC(=O)c2ccc(cc2)C#Cc2[nH]c3ccccc3c2C[C@@H](C(N)=O)NC1=O", "note": "[EBX-Nal(2)-R-R-R-R-W-NH2]", "values": [{"measurement": "ring closure, isolated yield", "setting": "from N=C(N)NCCC[C@H](NC(=O)[C@H](CCCNC(=N)N)NC(=O)[C@H](CCCNC(=N)N)NC(=O)[C@H](CCCNC(=N)N)NC(=O)[C@H](Cc1ccc2ccccc2c1)NC(=O)c1ccc(C#CI2OC(C(F)(F)F)(C(F)(F)F)c3ccccc32)cc1)C(=O)N[C@@H](Cc1c[nH]c2ccccc12)C(N)=O, 27-membered ring", "value": 53, "unit": "%"}]}
{"molecule": "CC(=O)N[C@H]1CCCCNC(=O)c2ccc(cc2)C#Cc2[nH]c3ccccc3c2C[C@@H](C(=O)O)NC(=O)[C@H](Cc2ccccc2)NC(=O)[C@H](C)NC(=O)[C@H](CCC(=O)O)NC1=O", "note": "[Ac-K(EBX)-E-A-F-W-OH]", "values": [{"measurement": "ring closure, isolated yield", "setting": "from CC(=O)N[C@@H](CCCCNC(=O)c1ccc(C#CI2OC(C(F)(F)F)(C(F)(F)F)c3ccccc32)cc1)C(=O)N[C@@H](CCC(=O)O)C(=O)N[C@@H](C)C(=O)N[C@@H](Cc1ccccc1)C(=O)N[C@@H](Cc1c[nH]c2ccccc12)C(=O)O, 28-membered ring", "value": 37, "unit": "%"}]}
{"molecule": "CC[C@H](C)[C@@H]1NC(=O)[C@@H]2CCCN2C(=O)[C@H]([C@@H](C)CC)NC(=O)[C@@H]2CCCN2C(=O)[C@H](Cc2ccccc2)NC(=O)[C@H](C)NC(=O)c2ccc(cc2)C#Cc2[nH]c3ccccc3c2C[C@@H](C(N)=O)NC1=O", "note": "[EBX-A-F-P-I-P-I-W-NH2]", "values": [{"measurement": "ring closure, isolated yield", "setting": "from CC[C@H](C)[C@H](NC(=O)[C@@H]1CCCN1C(=O)[C@@H](NC(=O)[C@@H]1CCCN1C(=O)[C@H](Cc1ccccc1)NC(=O)[C@H](C)NC(=O)c1ccc(C#CI2OC(C(F)(F)F)(C(F)(F)F)c3ccccc32)cc1)[C@@H](C)CC)C(=O)N[C@@H](Cc1c[nH]c2ccccc12)C(N)=O, 30-membered ring", "value": 53, "unit": "%"}]}
{"molecule": "N=C(N)NCCC[C@@H]1NC(=O)CNC(=O)c2ccc(cc2)C#Cc2[nH]c3ccccc3c2C[C@@H](C(N)=O)NC(=O)[C@H](Cc2ccccc2)NC(=O)[C@H](CC(=O)O)NC(=O)CNC1=O", "note": "[EBX-G-R-G-D-F-W-NH2]", "values": [{"measurement": "ring closure, isolated yield", "setting": "from N=C(N)NCCC[C@H](NC(=O)CNC(=O)c1ccc(C#CI2OC(C(F)(F)F)(C(F)(F)F)c3ccccc32)cc1)C(=O)NCC(=O)N[C@@H](CC(=O)O)C(=O)N[C@@H](Cc1ccccc1)C(=O)N[C@@H](Cc1c[nH]c2ccccc12)C(N)=O, 27-membered ring", "value": 63, "unit": "%"}]}
{"molecule": "CC(=O)N[C@@H](CCC(=O)O)C(=O)N[C@H](C(=O)N[C@@H](Cc1ccccc1)C(=O)N[C@H]1CCCCNC(=O)c2ccc(cc2)C#Cc2[nH]c3ccccc3c2C[C@@H](C(=O)N[C@@H](C)C(=O)N[C@@H](CC(C)C)C(=O)N[C@@H](CC(C)C)C(=O)N[C@@H](Cc2c[nH]c3ccccc23)C(N)=O)NC(=O)[C@H](CC(C)C)NC(=O)[C@H](CC(=O)O)NC1=O)[C@@H](C)O", "note": "[Ac-E-T-F-K(EBX)-D-L-W-A-L-L-W-NH2]", "values": [{"measurement": "ring closure, isolated yield", "setting": "from CC(=O)N[C@@H](CCC(=O)O)C(=O)N[C@H](C(=O)N[C@@H](Cc1ccccc1)C(=O)N[C@@H](CCCCNC(=O)c1ccc(C#CI2OC(C(F)(F)F)(C(F)(F)F)c3ccccc32)cc1)C(=O)N[C@@H](CC(=O)O)C(=O)N[C@@H](CC(C)C)C(=O)N[C@@H](Cc1c[nH]c2ccccc12)C(=O)N[C@@H](C)C(=O)N[C@@H](CC(C)C)C(=O)N[C@@H](CC(C)C)C(=O)N[C@@H](Cc1c[nH]c2ccccc12)C(N)=O)[C@@H](C)O, 25-membered ring", "value": 37, "unit": "%"}]}
{"molecule": "CC(=O)N[C@H]1CCCCNC(=O)c2ccc(cc2)C#Cc2[nH]c3ccccc3c2C[C@@H](C(=O)O)NC(=O)[C@H](Cc2ccccc2)NC(=O)[C@H](C)NC(=O)[C@H](Cc2c[nH]cn2)NC1=O", "note": "[Ac-K(EBX)-H-A-F-W-OH]", "values": [{"measurement": "ring closure, isolated yield", "setting": "from CC(=O)N[C@@H](CCCCNC(=O)c1ccc(C#CI2OC(C(F)(F)F)(C(F)(F)F)c3ccccc32)cc1)C(=O)N[C@@H](Cc1c[nH]cn1)C(=O)N[C@@H](C)C(=O)N[C@@H](Cc1ccccc1)C(=O)N[C@@H](Cc1c[nH]c2ccccc12)C(=O)O, 28-membered ring", "value": 30, "unit": "%"}]}
{"molecule": "CC(=O)N[C@H]1CCCCNC(=O)c2ccc(cc2)C#Cc2[nH]c3ccccc3c2C[C@@H](C(=O)O)NC(=O)[C@H](CC(C)C)NC1=O", "note": "[Ac-K(EBX)-L-W-OH]", "values": [{"measurement": "ring closure, isolated yield", "setting": "from CC(=O)N[C@@H](CCCCNC(=O)c1ccc(C#CI2OC(C(F)(F)F)(C(F)(F)F)c3ccccc32)cc1)C(=O)N[C@@H](CC(C)C)C(=O)N[C@@H](Cc1c[nH]c2ccccc12)C(=O)O, 22-membered ring", "value": 40, "unit": "%"}]}
{"molecule": "C#CC[C@@H]1NC(=O)[C@@H](NC(C)=O)CCCCNC(=O)c2ccc(cc2)C#Cc2[nH]c3ccccc3c2C[C@@H](C(=O)O)NC(=O)[C@H](Cc2ccccc2)NC(=O)[C@H](C)NC1=O", "note": "[Ac-K(EBX)-Pra-A-F-W-OH]", "values": [{"measurement": "ring closure, isolated yield", "setting": "from C#CC[C@H](NC(=O)[C@H](CCCCNC(=O)c1ccc(C#CI2OC(C(F)(F)F)(C(F)(F)F)c3ccccc32)cc1)NC(C)=O)C(=O)N[C@@H](C)C(=O)N[C@@H](Cc1ccccc1)C(=O)N[C@@H](Cc1c[nH]c2ccccc12)C(=O)O, 28-membered ring", "value": 57, "unit": "%"}]}
